Calls of active or inactive are those of the source. No cut-off for these calls is given here.

Holding throughout (format): functional, organism-based
Experiment [1] deals with Saccharomyces cerevisiae. As to the kind of experiment: Antimicrobial activity against Saccharomyces cerevisiae ATCC 18824 at 200 ug/mL.
Experiment [2] concerns Saccharomyces cerevisiae. Description: Antimicrobial activity against Saccharomyces cerevisiae ATCC 18824 at 10 ug/mL.
The subject of experiment [3] is Pseudomonas aeruginosa. As to the kind of experiment: Antimicrobial activity against Pseudomonas aeruginosa ATCC 15442 at 200 ug/mL.
The test system of experiment [4] is Staphylococcus aureus. As to the kind of experiment: Antimicrobial activity against Staphylococcus aureus ATCC 6538 at 200 ug/mL.
Experiment [5] has as its system Aspergillus niger. Description: Antimicrobial activity against Aspergillus niger ATCC 9642 at 200 ug/mL.
The test system of experiment [6] is Aspergillus niger. As to the kind of experiment: Antimicrobial activity against Aspergillus niger ATCC 9642 at 100 ug/mL.
Experiment [7] deals with Aspergillus niger. As to the kind of experiment: Antimicrobial activity against Aspergillus niger ATCC 9642 at 1 ug/mL.
The subject of experiment [8] is Saccharomyces cerevisiae. Description: Antimicrobial activity against Saccharomyces cerevisiae ATCC 18824 at 100 ug/mL.
For experiment [9], the system named is Saccharomyces cerevisiae. Description: Antimicrobial activity against Saccharomyces cerevisiae ATCC 18824 at 1 ug/mL.
For experiment [10], the system named is Aspergillus niger. Description: Antimicrobial activity against Aspergillus niger ATCC 9642 at 10 ug/mL.
For experiment [11], the system named is Pseudomonas aeruginosa. As to the kind of experiment: Antimicrobial activity against Pseudomonas aeruginosa ATCC 15442 at 100 ug/mL.
Experiment [12] has as its system Pseudomonas aeruginosa. Description: Antimicrobial activity against Pseudomonas aeruginosa ATCC 15442 at 10 ug/mL.
Experiment [13] concerns Pseudomonas aeruginosa. As to the kind of experiment: Antimicrobial activity against Pseudomonas aeruginosa ATCC 15442 at 1 ug/mL.
For experiment [14], the system named is Staphylococcus aureus. As to the kind of experiment: Antimicrobial activity against Staphylococcus aureus ATCC 6538 at 100 ug/mL.
Experiment [15] has as its system Staphylococcus aureus. Description: Antimicrobial activity against Staphylococcus aureus ATCC 6538 at 10 ug/mL.
Experiment [16] concerns Staphylococcus aureus. Description: Antimicrobial activity against Staphylococcus aureus ATCC 6538 at 1 ug/mL.

`CC1=CCC[C@@H]2[C@@](C)(CC/C(C)=C/Cn3c[n+](C)c4ncnc(N)c43)[C@H](C)CC[C@@]12C`: the outcome with Saccharomyces cerevisiae [1], in the experiment with Pseudomonas aeruginosa [3], with Staphylococcus aureus [4] and with Aspergillus niger [5] was inactive. The result in the experiment with Saccharomyces cerevisiae [2] was Active.
For the molecule `C=C1[C@H](O)CC[C@H]2[C@](C)(CC/C(C)=C/Cn3c[n+](C)c4ncnc(N)c43)[C@@H](C)CC[C@@]12C`, the result in the experiment with Saccharomyces cerevisiae [1] was Active.
As to `CC1=CCC[C@H](C)[C@@]1(C)CC/C(C)=C/CC/C(C)=C/Cn1c[n+](C)c2ncnc(N)c21`, the result with Saccharomyces cerevisiae [2] and in the experiment on Aspergillus niger [6] was Active.
Consider `C/C(=C\Cn1c[n+](C)c2ncnc(N)c21)CC[C@]1(C)[C@@H](C)CC[C@@]2(C)C(COC(=O)c3ccc[nH]3)=CCC[C@@H]12`, for which the outcome in the experiment on Saccharomyces cerevisiae [1], in the experiment with Pseudomonas aeruginosa [3], in the experiment on Staphylococcus aureus [4] and in the experiment with Aspergillus niger [5] was inactive. The outcome in the experiment with Saccharomyces cerevisiae [2] was Active.
For `C/C(=C\Cn1c[n+](C)c2ncnc(N)c21)CC[C@]1(C)[C@@H](C)CC[C@@]2(C)C(CO)=CCC[C@@H]12`, the outcome in the experiment with Aspergillus niger [7], in the experiment with Saccharomyces cerevisiae [1], with Saccharomyces cerevisiae [8], with Saccharomyces cerevisiae [2], in the experiment on Saccharomyces cerevisiae [9] and with Aspergillus niger [10] was inactive. The outcome in the experiment with Pseudomonas aeruginosa [3], with Pseudomonas aeruginosa [11], in the experiment with Pseudomonas aeruginosa [12], with Pseudomonas aeruginosa [13], in the experiment on Staphylococcus aureus [4] and with Staphylococcus aureus [14] was inactive. The result in the experiment on Staphylococcus aureus [15], with Staphylococcus aureus [16], in the experiment on Aspergillus niger [5] and in the experiment with Aspergillus niger [6] was inactive.
As for `CC1=CCC[C@H]2[C@](C)(CC/C(C)=C/Cn3c[n+](C)c4ncnc(N)c43)[C@@H](C)CC[C@@]12C`, the outcome in the experiment on Aspergillus niger [7], in the experiment on Saccharomyces cerevisiae [1], with Saccharomyces cerevisiae [8], in the experiment on Saccharomyces cerevisiae [2], in the experiment with Saccharomyces cerevisiae [9] and in the experiment with Aspergillus niger [10] was inactive. For the same molecule, the outcome in the experiment with Pseudomonas aeruginosa [3], in the experiment on Pseudomonas aeruginosa [11], with Pseudomonas aeruginosa [12], in the experiment with Pseudomonas aeruginosa [13], in the experiment on Staphylococcus aureus [4] and in the experiment on Staphylococcus aureus [14] was inactive. The result with Staphylococcus aureus [15], in the experiment with Staphylococcus aureus [16], with Aspergillus niger [5] and in the experiment on Aspergillus niger [6] was inactive.

These data come from ChEMBL document CHEMBL1158667, “Agelasines H and I, 9-methyladenine-containing diterpenoids from an Agelas sponge” (J Nat Prod, 1998).
